The values that follow come from patent US20260251625A1, “METHOD FOR DETERMINING THE DEGREE OF OXIDATIVE DEGRADATION OF POLYSORBATE 20 IN AQUEOUS FORMULATIONS” (Boehringer Ingelheim International GmbH, priority 2021, published 2026).

This data set can be described thus: AAPH-induced oxidative stress of aqueous polysorbate 20 solution, PEG-6-laurate oxidation marker by LC-MS P6L. Type of data set: physicochemical. The following applies: 1.5 mM AAPH. The method, then:
Specifically, oxidative stress is applied to the aqueous polysorbate 20 solution using 1.5 mM 2,2′-azobis-2-methyl-propanimidamide, dihydrochloride (AAPH). The details of the sample preparation are explained in the experimental section under chapter “1.1 Materials”, point “c) Sample preparation of artificially stressed polysorbate 20”.
1.5 mM 2,2′-azobis-2-methyl-propanimidamide, dihydrochloride (AAPH) was added to a 0.040 mg/ml aqueous polysorbate 20 solution. The polysorbate 20 solution was stressed for 40 h at 50° C.
1.5 mM 2,2′-azobis-2-methyl-propanimidamide, dihydrochloride (AAPH) was added to a 0.040 mg/ml aqueous polysorbate 20 solution. The polysorbate 20 solution was stressed for 35 h at 50° C. After 0, 1, 3, 8, 12, 24 and 35 h samples were taken from the solution and immediately frozen at −20° C. in order to stop the degradation at each time point. […]
The separated species were then ionized with heated electrospray ionization (HESI) source (Ion Max Ion source with HESI probe, Thermo Fisher Scientific). […] Ions generated were detected in the mass spectrometer (LTQ, Thermo Fisher Scientific). […] PEG-6-laurate was evaluated by generating extracted ion chromatograms (EIC's) out of the full scan data to get peak areas of selected compounds using LCquan™ (Software for quantitative analysis of liquid chromatography).

For polyethylene glycol-6-laurate, for the setting “m/z about 227 amu, 40 h at 50° C.”, the “increase of peak eluting at about 18.4 min, AAPH-stressed vs unstressed sample” value is on record as “approximately 3.4 fold”. For the setting “reference T0, 50° C., 0-35 h”, the “relative peak area of polyethylene glycol-6-laurate over stress time” value is listed as “increase up to the sampling time point T4 (12 h)”.
